According to US11191746B2, “Composition for inhibiting a growth of cancer stem cells comprising ciclesonide” (JEJU NATIONAL UNIVERSITY INDUSTRY-ACADEMIC COOPERATION …, priority 2016, dated 2021):

What was measured:
[1] = system: MCF-7 cell xenograft tumor; assay: Breast cancer xenograft model in NOD-SCID female nude mice; type: in vivo; details: MCF-7 xenograft, 10 mg/kg
Protocol: (§1) A total of 12 NOD-SCID (BALB/cSIc (nu/nu)) female nude mice producing breast cancer cells were divided into two groups. […] The volume of tumors of each control mouse was measured every three days and calculated by the following equation: (width×length^2)/2. The other six nude mice received neoadjuvant chemotherapy using a test drug by infusion at an optimum dose of 10 mg/kg/day.

A549 cells [2] = assay: ALDEFLUOR analysis, lung cancer cells; type: cell-based, human; details: 24 hours
Protocol: (§2) An ALDEFLUOR analysis system provides a novel approach to the identification, evaluation, and isolation of CSCs based on the activity of aldehyde dehydrogenase (ALDH). BODIPY-aminoacetaldehyde as an active reagent was added to breast cancer cells or lung cancer cells, and converted into fluorescent BODIPY-aminoacetate by ALDH. Diethylaminobenzaldehyde (DEAB), which is an ALDH inhibitor, was used as a negative control. MCF-7 cells or A549 cells were treated with 10 μM or 20 μM ciclesonide for 24 hours, and the proportion of ALDH-positive cells was analyzed by ALDEFLUOR assay. ALDH-positive and negative cells were sorted by C6 Accuri flow cytometry (BD Bioscience).

A549 cells [3] = assay: Lung cancer cell proliferation assay (MTS); type: cell-based, human; details: A549, 48 hours after treatment
Protocol: The proliferation rates of MCF-7 cells and MDA-MB-231 cells were measured using a CellTiter 96® aqueous one solution cell proliferation kit. The MCF-7 cells or the MDA-MB-231 cells were cultured in a 96-well plate for 48 hours in the presence of ciclesonide at concentrations of 0 μM, 5 μM, 10 μM, 20 μM, 40 μM, and 80 μM. In accordance with the manufacturer's protocol, absorbance at 490 nm was determined using a 96-well plate reader (Dynex Revelation, Dynex Ltd., Billingshurst, UK). Respective data was determined by measuring three sets.
An experiment was performed in the same manner as in Example 10-1, except that A549 cells were used as lung cancer cells and treated with ciclesonide at concentrations of 0 μM, 10 μM, 20 μM, 40 μM, 80 μM, and 100 μM.

STAT3 = assay: Electrophoretic mobility shift assay (EMSA) of mammosphere nuclear extract; type: cell-based, human; details: ciclesonide-treated mammosphere nuclear extract
MCF-7 cells = assay: ALDEFLUOR analysis, breast cancer cells; type: cell-based, human; details: 24 hours
Protocol: as §2

[4] = system: A549 cell xenograft tumor; assay: Lung cancer xenograft model in NOD-SCID male nude mice; type: in vivo; details: 10 mg/kg
Protocol: as §1, with “male” for “female”, “lung” for “breast”

Sox2 = assay: Real-time PCR of self-renewing genes in mammospheres; type: cell-based, human; details: RT-PCR, β-actin internal control
Protocol: The levels of transcripts were measured with a One Step SYBR PrimeScript RT-PCR kit (Takara, Tokyo, Japan) using SYBR green as a double-stranded DNA-specific dye in accordance with the manufacturer's protocol. One-step RT-PCR was performed on 1 μg of total RNA, 10 μl of 2× One Step SYBR RT-PCR Buffer IV, and 1 μl of PrimeScript 1 step Enzyme Mix II using PCR forward and reverse primers of each of CD44, NANOG, OCT4, C-myc, Sox2, Snail, and β-actin at a final volume of 20 μl per reaction.
The relative expression level of mRNA of the target gene was calculated using a comparative CT method. At least three independent PCR procedures were performed in accordance with statistical analysis. PCR products were normalized with the […] gene as an internal control.

For `CC(C)C(=O)OCC(=O)[C@@]12O[C@H](C3CCCCC3)O[C@@H]1C[C@H]1[C@@H]3CCC4=CC(=O)C=C[C@]4(C)[C@H]3[C@@H](O)C[C@@]12C` [ciclesonide], the “tumor volume vs control not treated” value [1] was “smaller”, the “tumor weight vs control not treated” value [1] was “smaller” and the “proportion of ALDH-positive lung cancer cells” value (A549 cells [2]) was “reduced”. For the same compound, the “concentration at which growth of the cell line was inhibited in a concentration-dependent manner” value (A549 cells [3]) was no less than 40 µM, the “binding between the biotin-labeled SIE probe and Stat3” value (STAT3) was “inhibited” and the “proportion of ALDH-positive breast cancer cells” value (MCF-7 cells) was “reduced”. The “tumor volume vs control not treated” value [4] was “smaller”, the “tumor weight vs control not treated” value [4] was “smaller” and the “expression of Sox2” value (Sox2) was “reduced”.
